Experiment [1] deals with T1, KRAS G12V (Homo sapiens, UniProt P01116, G12V).
T1 construct: K, N and HRAS G12V (full length) was cloned with Xho I and BgI II to LgBit; expressed in transfected cells
Description: NanoBit assay for RAS activation (LgBiT-KRAS G12V / SmBiT-CRAF RAS binding domain). The settings on record: KRAS G12V with CRAF RBD (1-149); 2 h with inhibitor in serum free DMEM; DMSO set as 1. It is filed as cell-based. The procedure: (§1) FIGS. 1a) and 1b): NanoBit assay for RAS activation (KRAS G12V, NRAS G12V, HRAS G12V) N-terminal LgBiT and C-terminal SmBiT construct was purchased from Promega and K, N and HRAS G12V (full length) was cloned with Xho I and BgI II to LgBit and CRAF RAS binding domain (1-149) was cloned with EcoRI and BgI II to SmBit. For transfections, 1 μg or 2 μg of (12 well/6 well) plasmids were transfected into cells with 0.5 mM of PEI reagent in 100 μl or 200 μl PBS. One day after transfection, cells were harvested and seeded into 96 well white plates, half area (Greiner). After an additional day the medium was changed to serum free DMEM and the cells were incubated for 2 h with inhibitors. NanoGlo assay was performed according to the manufacturer's instructions. The luminescence was measured using Tecan infinite (Tecan). DMSO-treated cells were set as 1. The results shown are mean mean±SEM from at least 3 independent experiments.

Experiment [2] concerns the target T2, HRAS G12V (Homo sapiens, UniProt P01112, G12V).
T2 construct: K, N and HRAS G12V (full length) was cloned with Xho I and BgI II to LgBit; expressed in transfected cells
Description: NanoBit assay for RAS activation (LgBiT-HRAS G12V / SmBiT-CRAF RAS binding domain). It is filed as cell-based. The settings on record: HRAS G12V with CRAF RBD (1-149); 2 h with inhibitor in serum free DMEM; DMSO set as 1. As for the experimental part: as §1

In experiment [3] the test system is LgBit-KRAS mutants (G12V, G12C, G12D, G12C/Y96D, G13C, G13D, G13S, Q61K and Q61R). Description: NanoBit assay for inhibition of RAS activation, KRAS mutants in HeLa cells. The experiment is classed as cell-based. The conditions noted are these: LgBit-KRAS mutants and SmBit-CRAF-RBD, 2 h in serum-free DMEM. As for the experimental part:
FIG. 3: NanoBit assay for inhibition of RAS activation (G12V, G12C, G12D, G12C/Y96D, G13C, G13D, G13S, Q61K and Q61R)
NanoBiT assay for the RAS GTP-loading was performed in HeLa cells transfected with LgBit-KRAS mutants and SmBit-CRAF-RBD. Cells were treated with GSK2126458 according to the invention for 2 h in serum-free DMEM. After incubation, the substrate for NanoLuc was added, and the luminescence was measured in a multiplate reader. Data were normalized to cells transfected with the indicated mutant and exposed to DMSO for 2 h. DMSO-treated cells were set as 1. The bars represent mean±SEM from 3 independent experiments.

In experiment [4] the test system is sNF96.2. Description: RASOpathie-Model; MTT assay for cell viability in 96 well cell culture plate (FIG. 5). It is filed as cell-based. The conditions noted are these: 48 h treatment. As for the experimental part:
(§2) Metabolic activity was quantified using Cell Proliferation Kit I (Roche, Basel, Switzerland). Cells were seeded in 96-well cell culture plates, using 5000 cells per well for NCI-H358 cells. After treatment, 10 μl of MTT solution was added and incubated for 2 h in CO2 incubator. Then 100 μl of solubilization buffer was added to each well and incubated overnight in CO2 incubator. Cell viability, assessed by the amount of metabolized MTT, was quantified by measuring absorbance at 570 nm.
FIG. 5: RASOpathie-Model of GSK2126458; MTT assay for cell viability in 96 well cell culture plate
Cells were treated with GSK2126458 for 48 h and cell viability was evaluated by MTT assay. DMSO-treated cells were set as 1. The results shown are mean±SEM from 3 independent experiments.
(In general: Tetrazolium dyes change colour on reduction, which living cells bring about.)

In experiment [5] the test system is HT1080 cells. Kind of experiment: Soft agar colony formation assay with MTT staining. It is filed as cell-based. The conditions noted are these: Homo sapiens, HT-1080, growth in soft agar, absorbance at 570 nm. As for the experimental part:
as §2
(§3) MTT assay for the growth of different tumor cell lines with RAS mutations in soft agar with GSK2126458. Shown are data from three independent experiments.
(§4) NCI-H358, H358, H2122, ASPC-1, HCT-116, T24 and HT1080 cells were used for the soft […] agar colony formation assay. After the treatment with GSK2126458, the colonies were stained with MTT and the value was quantified by measuring absorbance at 570 nm after solubilization. The results represent mean±SD from 3 independent experiments.

For experiment [6], the system named is ASPC1 cells. Kind of experiment: Soft agar colony formation assay with MTT staining. The settings on record: Homo sapiens, growth in soft agar, absorbance at 570 nm. It is filed as cell-based. As for the experimental part:
as §2, §3, §4

Experiment [7] deals with T24 cells. Description: Soft agar colony formation assay with MTT staining. The settings on record: Homo sapiens, T-24, growth in soft agar, absorbance at 570 nm. It is filed as cell-based. As for the experimental part:
as §2, §3, §4

Experiment [8] deals with HCT-116 cells. Kind of experiment: Soft agar colony formation assay with MTT staining. The settings on record: Homo sapiens, growth in soft agar, absorbance at 570 nm. The experiment is classed as cell-based. The procedure: as §2, §3, §4
Experiment [9] relates to NCI-H358 cells. Description: Soft agar colony formation assay with MTT staining. The experiment is classed as cell-based. The settings on record: Homo sapiens, growth in soft agar, absorbance at 570 nm. The procedure:
as §2, §3, §4

Experiment [10] concerns NCI-H2122 cells. Kind of experiment: Soft agar colony formation assay with MTT staining. It is filed as cell-based. The settings on record: Homo sapiens, growth in soft agar, absorbance at 570 nm. As for the experimental part: as §2, §3, §4
Experiment [11] addresses T3, NRAS G12V (Homo sapiens, UniProt P01111, G12V).
T3 construct: K, N and HRAS G12V (full length) was cloned with Xho I and BgI II to LgBit; expressed in transfected cells
Description: NanoBit assay for RAS activation (LgBiT-NRAS G12V / SmBiT-CRAF RAS binding domain). The experiment is classed as cell-based. The conditions noted are these: NRAS G12V with CRAF RBD (1-149); 2 h with inhibitor in serum free DMEM; DMSO set as 1. The procedure:
as §1

The subject of experiment [12] is KRAS dependent cells. Description: MTT assay for cell viability in 96 well cell culture plate (FIG. 4). The experiment is classed as cell-based. The settings on record: 48 h treatment; incl. G12C/Y96D mutation; DMSO set as 1. As for the experimental part: as §2
FIG. 4: MTT assay for cell viability in 96 well cell culture plate Cells were treated with GSK2126458 for 48 h and cell viability was evaluated by MTT assay. […]. DMSO-treated cells were set as 1. The results shown are mean±SEM from 3 independent experiments.

Experiment [13] relates to p110a, p110β, p110γ, p110σ, and the mTOR1 and mTOR2 complexes and DNA-PK. The settings on record: ATP-competitive, reversible; cited from earlier work.

T1 sequence (P01116 1-186 isoform P01116-2 G12V limits assumed): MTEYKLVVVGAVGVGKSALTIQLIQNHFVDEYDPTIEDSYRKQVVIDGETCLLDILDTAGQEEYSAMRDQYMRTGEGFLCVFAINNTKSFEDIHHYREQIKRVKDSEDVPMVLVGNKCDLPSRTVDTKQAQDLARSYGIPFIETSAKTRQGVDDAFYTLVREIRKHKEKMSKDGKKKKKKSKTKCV
T3 sequence (P01111 1-186 G12V limits assumed): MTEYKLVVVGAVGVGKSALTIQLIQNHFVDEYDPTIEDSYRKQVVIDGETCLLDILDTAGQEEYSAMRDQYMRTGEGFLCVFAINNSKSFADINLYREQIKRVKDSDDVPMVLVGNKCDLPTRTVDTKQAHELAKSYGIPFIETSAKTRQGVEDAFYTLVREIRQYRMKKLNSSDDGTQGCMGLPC
T2 sequence (P01112 1-186 G12V limits assumed): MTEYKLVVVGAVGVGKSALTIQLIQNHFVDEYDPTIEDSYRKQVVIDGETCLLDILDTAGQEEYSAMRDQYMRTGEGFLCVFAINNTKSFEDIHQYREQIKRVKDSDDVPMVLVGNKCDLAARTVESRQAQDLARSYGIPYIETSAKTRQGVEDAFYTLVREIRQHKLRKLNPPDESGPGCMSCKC

As for `COc1ncc(-c2ccc3nccc(-c4ccnnc4)c3c2)cc1NS(=O)(=O)c1ccc(F)cc1F` [GSK2126458, 2,4-Difluoro-N-[2-methoxy-5-[4-(4-pyridazinyl)-6-quinolinyl]-3-pyridinyl]benzenesulfonamide], the “inhibition of K-RAS activation (NanoBit luminescence)” value in [1] was “inhibits”. For the same compound, the “inhibition of H-RAS activation (NanoBit luminescence)” value in experiment [2] is recorded as “inhibits”. Besides, in experiment [3], the “inhibition of RAS activation (RAS GTP-loading, NanoBiT)” value is on record as “inhibits different RAS-isoforms”. The IC50 came to 3.8 µM in experiment [4]; 86.9 µM in [5]; 10.8 µM in experiment [6]; 228 µM in experiment [7]; 47.4 µM in [8]; 11.5 µM in experiment [9]. The compound further registered a half-inhibitory concentration (IC50) in experiment [10] of 4.51 µM. In experiment [11], the “inhibition of N-RAS activation (NanoBit luminescence)” value is reported as “inhibits”. Moreover, in experiment [12], the “cell viability (MTT)” value is on record as “inhibits KRAS dependent cells irrespective of the presence of mutation”. Moreover, the “activity against PI3K isoforms, mTOR complexes and DNA-PK” value in experiment [13] was “subnanomolar activity”.

The term IC50 denotes the concentration that inhibits the measured activity by half. The low end stands for greater potency in that assay, the high end for weaker potency in that assay.

The record behind these values is patent US20250368617A1, “NOVEL RAS INHIBITORS” (KHR BIOTEC GMBH, priority 2022, published 2025).
